Results reported in PMC10475101, “Selective steroidogenic cytochrome P450 haem iron ligation by steroid-derived isonitriles” (Communications Chemistry, 2023).
Where “and” joins values, the source holds several entries; their conditions need not be identical. Identical values can stand only once.

Tests used:
CYP106A2 = CYP106A2 (Priestia megaterium, UniProt Q06069); assay: Absorbance difference spectra titration of CYP106A2; assay type: binding, bacterial; details: 1 µM CYP106A2
Method: Fig. 5 CYP106A2 interaction with steroidal isonitriles. […] Maximum concentration of 2 (light blue trace) is 20 µM. […] Maximum concentration of 4 is ~10 µM (blue trace). C Overlay of 800 MHz ^1H,^15N-TROSY-HSQC spectra of ^15N-Gly-labeled CYP106A2 with levopimaric acid p-benzoquinone Diels-Alder adduct bound after reduction with sodium dithionite and treatment with carbon monoxide (red), or with 7,17-(bis)isonitrile 4 (blue) after anaerobic reduction with sodium dithionite.

CYP3A4 [1] = target: T1, CYP3A4 (Homo sapiens, UniProt P08684); assay: in vitro; assay type: binding
T1 construct: made in house
T1 sequence (P08684 whole entry): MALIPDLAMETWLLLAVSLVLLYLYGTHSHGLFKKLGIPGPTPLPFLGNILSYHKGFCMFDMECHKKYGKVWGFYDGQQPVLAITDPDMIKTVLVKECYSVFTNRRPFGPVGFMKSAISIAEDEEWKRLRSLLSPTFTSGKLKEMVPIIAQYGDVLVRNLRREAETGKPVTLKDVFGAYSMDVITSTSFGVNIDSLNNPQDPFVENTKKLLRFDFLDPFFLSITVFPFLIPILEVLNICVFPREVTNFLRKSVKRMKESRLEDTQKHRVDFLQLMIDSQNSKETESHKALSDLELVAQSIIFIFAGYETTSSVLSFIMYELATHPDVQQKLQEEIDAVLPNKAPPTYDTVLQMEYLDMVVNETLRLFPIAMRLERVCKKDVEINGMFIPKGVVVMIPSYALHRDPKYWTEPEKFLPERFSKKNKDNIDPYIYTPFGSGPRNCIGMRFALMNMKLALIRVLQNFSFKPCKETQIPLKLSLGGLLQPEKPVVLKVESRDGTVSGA
Method: (§1) (Adapted from DeVore, et al.)[25] Ligand interaction with the heme iron was evaluated by titrating ligands into a cuvette containing purified CYP17A1[14], CYP2D6 L230D/L231R[26], or CYP3A4[27] and measured using a UV-visible scanning spectrophotometer. Enzyme was diluted to 0.2 µM in 100 mM potassium phosphate buffer (pH 7.4), 20% glycerol, and 100 mM sodium chloride and divided equally between two 5 mL cuvettes to evaluate high-affinity binding. Ligands dissolved in dimethylsulfoxide (DMSO) were added to the sample cuvette and an equal volume of DMSO to the reference cuvette. Difference spectra were recorded from 300 to 500 nm after equilibration of enzyme and ligand. Binding to the enzyme was measured as the difference in maximal and minimal absorbance: A387—A419 for pregnanolone and 3-formyl pregnanolone, and A435—A393 for compound 1 with CYP17A1; A434—A414 for compound 1 with CYP3A4 and CYP2D6. The dissociation constant and maximum spectral change were calculated using tight-binding or quadratic equation. All data fitting was accomplished using GraphPad Prism 9. Details of fitting are provided in Supplementary Information, and numerical data used to generate graphs in Figs. 2, 4 and 5 are provided in Supplementary Data 3 in Excel format.

CYP2D6 L230D/L231R = target: T2, CYP2D6 L230D/L231R (Homo sapiens, UniProt P10635, L230D/L231R); assay: Ligand binding assay (UV-visible difference spectra titration)
T2 construct: made in house
T2 sequence (P10635 whole entry L230D/L231R): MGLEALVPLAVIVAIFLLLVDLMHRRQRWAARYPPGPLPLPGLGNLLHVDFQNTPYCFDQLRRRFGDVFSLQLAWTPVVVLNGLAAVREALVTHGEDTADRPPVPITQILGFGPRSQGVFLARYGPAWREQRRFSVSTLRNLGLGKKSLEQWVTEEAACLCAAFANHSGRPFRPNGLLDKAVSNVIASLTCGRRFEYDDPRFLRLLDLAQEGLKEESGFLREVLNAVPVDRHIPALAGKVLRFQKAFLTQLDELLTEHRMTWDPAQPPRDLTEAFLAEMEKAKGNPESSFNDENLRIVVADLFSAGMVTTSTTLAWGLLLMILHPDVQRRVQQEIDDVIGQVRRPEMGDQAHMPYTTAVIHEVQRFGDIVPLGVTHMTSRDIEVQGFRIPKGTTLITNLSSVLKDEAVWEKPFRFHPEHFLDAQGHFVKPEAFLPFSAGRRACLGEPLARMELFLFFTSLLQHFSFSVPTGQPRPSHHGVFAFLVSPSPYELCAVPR
Method: as §1

CYP17A1 = target: T3, CYP17A1 (Homo sapiens, UniProt P05093); assay: as above
T3 construct: made in house
T3 sequence (P05093 1-508): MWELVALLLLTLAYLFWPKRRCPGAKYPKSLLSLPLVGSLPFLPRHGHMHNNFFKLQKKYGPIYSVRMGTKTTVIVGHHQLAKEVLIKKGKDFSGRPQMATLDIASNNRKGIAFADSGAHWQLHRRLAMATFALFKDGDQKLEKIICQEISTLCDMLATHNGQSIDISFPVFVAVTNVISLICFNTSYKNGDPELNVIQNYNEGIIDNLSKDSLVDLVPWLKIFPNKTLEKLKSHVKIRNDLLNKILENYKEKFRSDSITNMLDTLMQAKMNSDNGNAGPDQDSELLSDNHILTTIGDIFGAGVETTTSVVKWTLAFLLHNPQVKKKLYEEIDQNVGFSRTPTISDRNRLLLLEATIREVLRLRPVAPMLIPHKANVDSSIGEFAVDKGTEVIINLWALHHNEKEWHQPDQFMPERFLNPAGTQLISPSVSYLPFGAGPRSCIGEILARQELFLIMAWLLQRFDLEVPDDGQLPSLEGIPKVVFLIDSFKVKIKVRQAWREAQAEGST
Method: as §1

CYP3A4 [2] = target: T1, CYP3A4
Method: Reduction of the 1-bound P450 complex was observed by taking a baseline absorbance reading from 400 to 500 nm using a UV-visible scanning spectrophotometer, of a 1 cm quartz cuvette containing 1 µM P450, with compound 1 at a saturating concentration (i.e., ≥ concentration needed to reach ΔAmax), in binding assay buffer (100 mM potassium phosphate buffer (pH 7.4), 20% glycerol, and 100 mM sodium chloride). A small quantity of sodium dithionite (spatula tip-full) was then added to the cuvette, and the spectra were recorded periodically over time to observe the formation of peaks indicating the reduction (~426 and 456 nm) and subsequent reoxidation (~435 nm) of the complex. The total time course for Fig. 6B was 103 min and 37 s. Numerical data used to generate graphs in Fig. 6 are provided in Supplementary Data 3 in Excel format.
185 S2) Ligand binding and inhibition assays
186 Reduction and reoxidation assays. Reduction of the isonitrile-bound P450 complex was observed by taking
187 a baseline absorbance reading from 400 to 500 nm using a UV-visible scanning spectrophotometer, of a 1cm
188 quartz cuvette containing 1 µM P450, with the selected isonitrile compound at a saturating concentration
189 (i.e., ≥ concentration needed to reach ΔAmax), in the same buffer used for binding assays (100 mM potassium
190 phosphate buffer (pH 7.4), 20% glycerol, and 100 mM sodium chloride). A small quantity of sodium dithionite
191 (spatula tip-full) was then added to the cuvette, and the spectra were recorded periodically over time to
192 observe the formation of peaks indicating the reduction (~426 and 456 nm) and subsequent reoxidation
193 (~435 nm) of the complex. The total time course for Figure 6B was 103 minutes and 37 seconds. […]
217 initiated by adding NADPH to a final concentration of 1 mM. After 20 minutes, metabolism was quenched
218 by adding 50 µL acetonitrile and placed on ice. The reaction vials were centrifuged at 5000 xg for 5 minutes
219 to pellet the precipitated protein, then the supernatant was injected onto a C18 column (Phenomenex, Luna,
220 50 x 4.6 mm) for HPLC. Separation on HPLC was obtained using a mobile phase of 45%/55% water/methanol
221 for 40 minutes. A standard curve of known product concentrations was used to convert the area under the
222 curve to the amount of product produced.
224 S3) Crystallization of 1-CYP17A1 complex and X-ray diffraction
225 Protein Crystallization and Structure Determination. CYP17A1 was saturated with 3β-formyl-5α
226 pregnanolone-20(R)-isonitrile (verified by 430 nm Soret peak) and prepared for crystallization via hanging

[3] = CYP3A4/20-(R)-1 complex reduced by sodium dithionite

Chain of CYP106A2 (Q06069 whole entry): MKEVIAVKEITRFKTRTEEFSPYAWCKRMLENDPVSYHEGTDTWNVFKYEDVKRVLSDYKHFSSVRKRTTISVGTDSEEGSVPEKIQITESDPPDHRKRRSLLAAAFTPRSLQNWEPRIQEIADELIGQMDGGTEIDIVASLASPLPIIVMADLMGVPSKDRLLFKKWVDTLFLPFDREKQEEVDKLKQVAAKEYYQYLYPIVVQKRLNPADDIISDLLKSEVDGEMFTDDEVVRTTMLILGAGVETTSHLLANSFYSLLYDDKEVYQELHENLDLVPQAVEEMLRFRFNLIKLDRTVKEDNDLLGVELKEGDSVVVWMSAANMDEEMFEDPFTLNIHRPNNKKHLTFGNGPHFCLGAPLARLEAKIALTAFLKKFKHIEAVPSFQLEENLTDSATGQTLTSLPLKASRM

[C-]#[N+][C@H](C)[C@H]1CC[C@H]2[C@@H]3CC[C@H]4C[C@@H](OC=O)CC[C@]4(C)[C@H]3CC[C@]12C [Compound 1, 3β-formyl-5α-pregnanolone-(R)-20-isonitrile]
spectral response / binding mode on CYP106A2 (CYP106A2): does not cause spectral perturbation
spectral response / binding mode on CYP106A2 (CYP106A2; listed as 20-(R)-1): no evidence for formation of a Fe—C bonded complex
contribution of Fe—C dative bond to the free energy of complexation (CYP3A4 [1]; CYP3A4, from Kd of 20-(R)-1 versus parent steroid): ~ 6 kJ/mol
dissociation constant for CYP3A4 relative to CYP17A1 (CYP3A4 [1]; CYP3A4 versus CYP17A1): more than a billion times higher
Kd (CYP3A4 [1]; human, pH 7.4, dissociation constant (Kd), protein 200 nM, 5 cm cuvette, tight-binding or quadratic equation, Fig. 4B: n = 3, 95% CI 120–215 nM): 167 nM
Soret shift on titration indicating Fe—CN—R bond formation (CYP3A4 [1]; titration of CYP3A4): 435 nm
difference spectrum peak indicative of Fe—CN bond formation (CYP3A4 [1]; titration of CYP3A4): 435 nm
dissociation constant for CYP2D6 relative to CYP17A1 (CYP2D6 L230D/L231R; CYP2D6 versus CYP17A1): 3 million
Kd (CYP2D6 L230D/L231R; protein 200 nM, 5 cm cuvette, n = 2, 95% CI undefined –6.4 nM, read-out: dissociation constant (Kd)): 0.49 nM and ~0.49 nM
Fe—CN—R bond formation on titration (CYP2D6 L230D/L231R; titration of CYP2D6): indicated the formation of the Fe—CN—R bond
Soret peak shift in difference spectra (CYP17A1; 2:1 mixture of C20 epimers of 1): 430 nm
Soret peak after titration (heme spectral shift from 417 nm water-bound) (CYP17A1; ferric CYP17A1, 430 nm = Fe—C isonitrile bond, 424 nm = type II Fe—N): 430 nm
dissociation constant estimate (tight binding equation fit) (CYP17A1; protein 200 nM, 95% CI undefined to 1.7 nM): 149 aM
Soret peak after reoxidation in air (CYP3A4 [2]; CYP3A4/20-(R)-1, 103 min): ~ 435 nm and 437.5 nm
reoxidation of reduced complex in air (CYP3A4 [2]; CYP3A4/20-(R)-1, 103 min): slowly re-oxidizes
split Soret after reduction, higher-wavelength maximum (CYP3A4 [2]; [3]): 454 nm
split Soret after reduction, lower-wavelength maximum (CYP3A4 [2]; [3]): 428 nm
